Test results: patent publication US10189777B2, “Benzenesulfonamido and related compounds for use as agonists of RORγ and the treatment of disease” (Lycera Corporation, priority 2014, dated 2019)

Molecular target: T1, HIS-tagged RORγ-LBD protein (Homo sapiens, UniProt P51449)
T1 construct: made in house; host or cells: SF9 cells, baculovirus expression system; the lysate was used
T1 sequence (P51449 269-508 limits assumed): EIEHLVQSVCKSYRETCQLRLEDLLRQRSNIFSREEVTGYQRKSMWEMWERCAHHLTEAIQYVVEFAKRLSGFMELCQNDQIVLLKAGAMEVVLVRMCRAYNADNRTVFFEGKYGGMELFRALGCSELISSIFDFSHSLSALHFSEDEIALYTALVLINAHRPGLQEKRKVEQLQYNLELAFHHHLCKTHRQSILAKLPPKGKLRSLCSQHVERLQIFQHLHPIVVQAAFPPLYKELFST
Test: RORγ-Ligand Binding Domain (LBD) TR-FRET Assay
Format: biochemical
Settings: for TR-FRET Assay Max Response: upper plateau of 4-parameter fit, signal in the absence of ursolic acid or test compound set as 100; for EC50: with 2 μM RORγ antagonist ursolic acid, biotinylated SRC1 LXXLL peptide, ratio 665 nm/615 nm
Procedure: Exemplary compounds from the above Examples were tested for ability to increase RORγ activity using (i) a RORγ-Ligand Binding Domain (LBD) TR-FRET Assay, and (ii) a Gal4-RORγ Luciferase Reporter Assay in HEK-293T Cells. Assay procedures and results are described below.
Part I—Procedures for RORγ-Ligand Binding Domain TR-FRET Assay
HIS-tagged RORγ-LBD protein was expressed in SF9 cells using a baculovirus expression system. The lysate was diluted in assay buffer (50 mM Tris pH 7.0, 50 mM KCl, 1 mM EDTA, 0.1 mM DTT, 0.01% BSA) to obtain RORγ-LBD final concentration of −3 nM in a 384-well assay plate (need to titrate for each batch of protein).
A stock of biotinylated-LXXLL peptide from coactivator SRC1 (Biotin-[…]) was prepared in assay buffer and added to each well (200 nM final concentration). A solution of Europium tagged anti-HIS antibody (0.6 nM final concentration) and APC-conjugated streptavidin (30 nM final concentration) were also added to each well. RORγ antagonist ursolic acid was also included at a final concentration of 2 μM. Compounds were diluted in DMSO and further diluted in assay buffer with a final DMSO concentration at 1%.
The final assay mixture was incubated overnight at 4° C. or 2 hours at room temperature, and the fluorescence signal was measured on an Envision plate reader: (Excitation filter=340 nm; APC emission=665 nm; Europium emission=615 nm; dichroic mirror=D400/D630; delay time=100 μs, integration time=200 μs). 50% Effective concentration (EC50) values for test compounds were calculated from the quotient of the fluorescence signal at 665 nm divided by the fluorescence signal at 615 nm. The quotient of the fluorescence signals in the absence of ursolic acid or test compound is set as 100. Max Response is defined as the upper plateau in the signal as determined by line-fit using a 4-parameter logistic model in PRISM (GraphPad).

Structure (SMILES)	EC50 [µM]	TR-FRET Assay Max Response
CCN(c1cccc(COC2CCCCC2C(F)(F)F)c1)S(=O)(=O)c1cccc(C(F)(F)F)c1 (stereo not shown)	0.5 to 5	** (The symbol “**” indicates a value in the range of greater than 90 to 150)
CCN(c1cccc(C(C)Oc2ccccc2Cl)c1)S(=O)(=O)c1cccc(C(F)(F)F)c1 (stereo not shown)	> 10	** (The symbol “**” indicates a value in the range of greater than 90 to 150)
CCN(c1cccc(COc2ccccc2Cl)c1)S(=O)(=O)c1cccc(C(F)(F)F)c1	0.5 to 5	** (The symbol “**” indicates a value in the range of greater than 90 to 150)
CCN(c1cccc(Cn2ncc3ccccc32)c1)S(=O)(=O)c1cccc(C(F)(F)F)c1	> 10	** (The symbol “**” indicates a value in the range of greater than 90 to 150)
CCN(c1cccc(Cn2c(=O)oc3ccccc32)c1)S(=O)(=O)c1cccc(C(F)(F)F)c1	> 10	** (The symbol “**” indicates a value in the range of greater than 90 to 150)
CCN(c1cccc(CN2CCc3ccccc32)c1)S(=O)(=O)c1cccc(C(F)(F)F)c1	0.5 to 5	** (The symbol “**” indicates a value in the range of greater than 90 to 150)
CCN(c1cccc(CNCc2ccccc2Cl)c1)S(=O)(=O)c1cccc(C(F)(F)F)c1	> 10	** (The symbol “**” indicates a value in the range of greater than 90 to 150)
CCN(c1cccc(OCCc2ccccc2)c1)S(=O)(=O)c1cccc(C(F)(F)F)c1	> 10	** (The symbol “**” indicates a value in the range of greater than 90 to 150)
CCN(c1cccc(OC(C)c2c(F)cccc2Cl)c1)S(=O)(=O)c1cccc(C(F)(F)F)c1 (stereo not shown)	> 10	
CCN(c1cccc(OCc2ccc(Cl)cc2Cl)c1)S(=O)(=O)c1cccc(C(F)(F)F)c1	> 10	** (The symbol “**” indicates a value in the range of greater than 90 to 150)
CCN(c1cccc(OCc2cccc(C(F)(F)F)c2Cl)c1)S(=O)(=O)c1cccc(C(F)(F)F)c1	> 10	
CCN(c1cccc(OCc2cccc(Cl)c2Cl)c1)S(=O)(=O)c1cccc(C(F)(F)F)c1	> 10	
CCN(c1cccc(CNC2CCCCC2)c1)S(=O)(=O)c1cccc(C(F)(F)F)c1	> 10	
CCN(c1cccc(OC2Cc3ccccc3C2)c1)S(=O)(=O)c1cccc(C(F)(F)F)c1	0.5 to 5	*** (The symbol “***” indicates a value in the range of greater than 150 to 200)
CCN(c1cccc(OCC2CCCCC2)c1)S(=O)(=O)c1cccc(C(F)(F)F)c1	< 0.5	**** (The symbol “****” indicates a value greater than 200)
CCN(c1cccc(OC2CCc3ccccc32)c1)S(=O)(=O)c1cccc(C(F)(F)F)c1 (stereo not shown)	< 0.5	**** (The symbol “****” indicates a value greater than 200)
CCN(c1cccc(OCc2ccccc2)c1)S(=O)(=O)c1cccc(C(F)(F)F)c1	0.5 to 5	*** (The symbol “***” indicates a value in the range of greater than 150 to 200)
CCC(c1ccc(OCc2ccccc2)cc1)S(=O)(=O)c1cccc(C(F)(F)F)c1 (stereo not shown)	0.5 to 5	** (The symbol “**” indicates a value in the range of greater than 90 to 150)
CCC(c1cccc(OCc2c(F)cccc2Cl)c1)S(=O)(=O)c1cccc(C(F)(F)F)c1 (stereo not shown)	< 0.5	*** (The symbol “***” indicates a value in the range of greater than 150 to 200)
CCC(c1ccc(OCc2ccccc2)cc1)S(=O)(=O)c1ccc(Cl)cc1 (stereo not shown)	0.5 to 5	*** (The symbol “***” indicates a value in the range of greater than 150 to 200)
CCC(c1cccc(OCc2ccccc2)c1)S(=O)(=O)c1ccc(Cl)cc1 (stereo not shown)	> 10	* (The symbol “*” indicates a value in the range of 70 to 90)

Now from value to compound, other results behind:

EC50 [µM]	Structure (SMILES)	TR-FRET Assay Max Response
< 0.5	CCN(c1cccc(OCc2ccccc2F)c1)S(=O)(=O)c1cccc(C(F)(F)F)c1	*** (The symbol “***” indicates a value in the range of greater than 150 to 200)
< 0.5	CCN(c1cccc(COC2(C)CCCCC2)c1)S(=O)(=O)c1cccc(C(F)(F)F)c1	** (The symbol “**” indicates a value in the range of greater than 90 to 150)
0.5 to 5	CCN(c1cccc(COC2CCCCC2)c1)S(=O)(=O)c1cccc(C(F)(F)F)c1	** (The symbol “**” indicates a value in the range of greater than 90 to 150)
< 0.5	CCN(c1cccc(C(C)Oc2c(F)cccc2Cl)c1)S(=O)(=O)c1cccc(C(F)(F)F)c1 (stereo not shown)	** (The symbol “**” indicates a value in the range of greater than 90 to 150)
< 0.5	CCN(c1cccc(COc2c(F)cccc2Cl)c1)S(=O)(=O)c1cccc(C(F)(F)F)c1	** (The symbol “**” indicates a value in the range of greater than 90 to 150)
0.5 to 5	CCN(Cc1cccc(N(CC)S(=O)(=O)c2cccc(C(F)(F)F)c2)c1)c1ccccc1Cl	** (The symbol “**” indicates a value in the range of greater than 90 to 150)
> 10	CCN(c1cccc(CNc2ccccc2Cl)c1)S(=O)(=O)c1cccc(C(F)(F)F)c1	** (The symbol “**” indicates a value in the range of greater than 90 to 150)
> 10	CCN(Cc1ccccc1Cl)c1cccc(N(CC)S(=O)(=O)c2cccc(C(F)(F)F)c2)c1	** (The symbol “**” indicates a value in the range of greater than 90 to 150)
> 10	CCN(c1cccc(OCc2cc(C(F)(F)F)ccc2Cl)c1)S(=O)(=O)c1cccc(C(F)(F)F)c1	*** (The symbol “***” indicates a value in the range of greater than 150 to 200)
> 10	CCOc1nn(CC)cc1S(=O)(=O)N(CC)c1cccc(OCc2ccccc2)c1	
< 0.5	CCN(c1cccc(OCc2c(F)cccc2Cl)c1)S(=O)(=O)c1cccc(C(F)(F)F)c1	**** (The symbol “****” indicates a value greater than 200)
< 0.5	CCC(c1cccc(OCc2c(F)cccc2Cl)c1)S(=O)(=O)c1ccc(Cl)cc1 (stereo not shown)	*** (The symbol “***” indicates a value in the range of greater than 150 to 200)
